Data set [1] concerns HIV-1 (IIIB) in MT-4 cells. As to the kind of experiment: MT-4 HIV assay. Type of data set: cell-based. As to conditions: Human immunodeficiency virus 1, MT4, 120 h; HIV-1 (IIIB), MT-4 cells, 5 days, Cell Titer Glo; read-out: EC50. An outline of the steps:
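MT-4 cells infected with HIV-1 IIIB (1:250 stock dilution) were incubated with 1:3 serially diluted compounds in RPMI with 10% FBS for 5 days at 37 °C. Cell Titer Glo luminescence was the readout. Plates included mock-infected wells, no-drug wells and 5 uM AZT controls.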

The nature of data set [2]: 3H Human Predicted Clearance Assay (tritiated analogs). On the set-up: unit not given here. The following applies: tritiated analogs, human liver microsomes. Type of data set: in vitro ADME. The procedure: 3H Human Predicted Clearance Assay:
For certain compounds, tritiated analogs (H^3) were prepared to further determined their human predicted clearance with increased resolution. Those studies were performed as described above using the tritiated analogs. Data from those compounds is found in Table 2 below and reported in FIG. 1 (note ATV and DRV were not tritiated).

A short description of the next data set: in vivo. As to conditions: rat, in vivo. The procedure, abridged:
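Male SD rats (n=3/group, 0.27–0.32 kg), fasted overnight, given 0.5 or 1.0 mg/kg by 30-min IV infusion, or by oral gavage. Serial plasma samples (EDTA-K2) over 24 h measured by LC/MS/MS; non-compartmental PK analysis.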

Data set [3] has as its system HIV-1 (IIIB) in MT-4 cells. As to the kind of experiment: MT-4 HIV High Resolution Antiviral Assay. Type of data set: cell-based. As to the method: Compounds were tested in a high-throughput 384-well assay format for their ability to inhibit the replication of HIV-1 (IIIB) in MT-4 cells. Compounds were serially diluted (1:3) in DMSO on 384-well polypropylene plates and further diluted 200-fold into complete RPMI media (10% FBS, 1% P/S) using the Biotek Micro Flow and Agilent ECHO acoustic dispenser. Each plate contained up to 8 test compounds, with negative (No Drug Control) and 5 uM AZT positive controls. MT-4 cells were pre-infected with 10 uL of either RPMI (mock-infected) or a fresh 1:250 dilution of an HIV-1 (IIIB) concentrated virus stock. Infected and uninfected MT-4 cells were further diluted in complete RPMI media and added to each plate using a Micro Flow dispenser. After 5 days incubation in a humidified and temperature controlled incubator (37° C.), Cell Titer Glo (Promega) was added to the assay plates to quantify the amount of luciferase. EC50 and CC50 values were defined as the compound concentration that causes a 50% decrease in luminescence signal, and were calculated using a sigmoidal dose-response model to generate curve fits.
(§1) MT-4 HIV High Resolution Antiviral Assay
(§2) Assay protocol is identical to that described for the MT-4 antiviral assay with the following changes: Each drug is run in 2 series of quadruplicates with different starting concentrations for each series and 19 1.5 fold dilutions performed across the plate. […] Data is analyzed and Hill coefficients determined in Graph Pad Prism (San Diego, Calif.). EC95s were determined by the formula EC95=(19)^I/hill coefficient×EC50. HD values were determined for certain compounds and reported in Table 5 below as an illustrative example.

The subject of data set [4] is HIV-1 (IIIB) in MT-4 cells. The data set is described as follows: Protein adjusted EC95 (high resolution antiviral assay with equilibrium dialysis plasma protein binding). It is filed as cell-based. The following applies: EC95 adjusted for plasma protein binding (10% plasma vs cell culture media). The procedure:
as §1, §2
Equilibrium Dialysis Assay
Pooled plasma (from at least 3 males and 3 females) was from Bioreclamation IVT. Sodium EDTA was used as the anticoagulant. 10% plasma was diluted in 0.133M phosphate buffer consisted of 1.5% (w/v) Sodium EDTA.
RPMI cell culture media consisted 10% FBS was provided by biology department, Gilead Sciences, Inc.
Plasma Protein Binding Assay:
Studies were conducted in duplicate or triplicate using a Dianorm Equilibrium Dialyser (Harvard Apparatus, Holliston Mass.) with each cell consisting of a semipermeable membrane (2.4 cm working diameter) separating two 1 mL PTFE half-cells (Weder HG, Schildknecht J, Kesselring P. A new equilibrium dialyzing system. American Laboratory. 1971; 10: 15-21). Prior to the study, the dialysis membrane was soaked for approximately one hour in 0.133 M phosphate buffer, pH 7.4. 10% plasma and cell culture media spiked with 1 μM compound (1 mL) were placed into opposite sides of the assembled dialysis cells and the dialysis cells were then rotated slowly in a 37° C. water bath. After the equilibration period, matrix-containing samples from both sides were drained into pre-weighed polypropylene tubes. Post-dialysis 10% plasma samples were transferred into centrifuge tubes containing 1 mL of blank cell culture media. Post-dialysis cell culture media samples were transferred into centrifuge tubes containing 1 mL of blank 10% plasma. All samples weights were measured and recorded for calculations of volume shift and recovery. […]
(In general: In equilibrium dialysis only unbound substance equilibrates across the membrane.)

For a further data set, the target named is recombinant HIV protease (Human immunodeficiency virus type 1 group M subtype B, UniProt P04585). The data set is described as follows: biochemical.

pEC50, pKi: −log10 of the molar value.

As a reminder, the pEC50 is the negative decadic logarithm of the EC50, by convention in mol/L. As a reminder, the Vd is the apparent volume that relates the amount in the body to the concentration in plasma or blood. As a reminder, the EC95 is the concentration needed for an effect of 95%. What is called pKi is −log10 of the Ki, conventionally taken in molar units.

Method for recombinant HIV protease: Inhibitor potency was measured using an enzymatic assay with a fluorogenic readout. […] After a 20-minute pre-incubation, the enzymatic reaction was initiated by the addition of the fluorogenic substrate (2-aminobenzoyl)Thr-Ile-Nle-(p-nitro)Phe-Gln-Arg (Bachem) to a final concentration of 40 μM. The total volume of the assay solution was 100 µL. The reaction was measured over 20 minutes on a Tecan Infinite M1000 plate reader using an excitation wavelength of 320 nm and a detection wavelength of 420 nm. The slopes of the progress curves were the measure of reaction rates.

In the case of `COC(=O)N[C@H](C(=O)N[C@@H](Cc1ccc(C#Cc2ccc(N3CC4CCC(C3)N4C3COC3)nc2)cc1)[C@@H](O)CN(Cc1c(F)cc(-c2ccn(C(F)F)n2)cc1F)NC(=O)[C@@H](NC(=O)OC)C(C)(C)C(F)(F)F)C(C)(C)C(F)(F)F` [Example 58, Methyl ((5S,8S,9S,14S)-11-(4-(1-(difluoromethyl)-1H-pyrazol-3-yl)-2,6-difluorobenzyl)-16,16,16-trifluoro-9-hydroxy-15,15-dimethyl-8-(4-((6-(8-(oxetan-3-yl)-3,8-diazabicyclo[3.2.1]octan-3-yl)pyridin-3-yl)ethynyl)benzyl)-3,6,13-trioxo-5-(1,1,1-trifluoro-2-methylpropan-2-yl)-2-oxa-4,7,11,12-tetraazahexadecan-14-yl)carbamate], the pEC50 in data set [1] was 8.32. In addition, the “3H Human Predicted Cl.” value in data set [2] was 0.05. In “in vivo” (male, SD, iv), the Vd came to 6.68 L/kg. In “in vivo” (male, SD, po, 2.5 mg/kg), the “RAT PO F” value is recorded as 37.2%. Also, in “in vivo” (iv), the “RAT IV CL” value is 8 mL/min/kg and the “RAT IV T1/2” value was 12.8 h. For the same molecule, in data set [3] (Human immunodeficiency virus 1, IIIB, MT4, high resolution assay, 40 data points, MT-4 cells, read-out: EC50), the pEC50 is 8.17. Moreover, the EC95 in data set [3] (calculated from Hill coefficient and EC50) is listed as 11.4 nM. The same molecule returned a Hill-coefficient in data set [3] (high resolution assay, Graph Pad Prism) of 5.8. Also, the “Protein Adjusted EC95” value in data set [4] was determined as 353 nM. In addition, the pKi on recombinant HIV protease was 10.22.

The values are drawn from US10294234B2, “HIV inhibitor compounds” (priority 2017, dated 2019).
